These molecules were tested against T1, Human GPR35 (Homo sapiens, UniProt Q9HC97) (assay: Beta-Arrestin Assay). Settings: Human GPR35 expressing JumpIn 294S Tango U2OS cells; compounds overnight; LiveBLAzer-FRET B/G (CCF4-AM) readout.
T1 construct: Tango receptor fusion (protease cleavage site + Gal4-VP16 transcription factor); host or cells: Jump-In Tango U2OS cells
Assay type: cell-based
Description: Human GPR35 expressing JumpIn (Thermo Fisher) 294S Tango U2OS cells were plated in 384-well format in clear bottom plates at a cell density of 10,000 cells/well and allowed to adhere for 5 hours. Cells were then treated with serially diluted test compounds overnight. The next day, LiveBLAzer-FRET B/G (CCF4-AM) detection reagents were added, and cells were allowed to incubate for 4 hours in the dark at room temp before reading plates on a BioTek Cytation 5 plate reader. To determine EC50 values, data were fit to a four-parameter dose-response curves.

T1 sequence (Q9HC97 whole entry, the tested form may be a part): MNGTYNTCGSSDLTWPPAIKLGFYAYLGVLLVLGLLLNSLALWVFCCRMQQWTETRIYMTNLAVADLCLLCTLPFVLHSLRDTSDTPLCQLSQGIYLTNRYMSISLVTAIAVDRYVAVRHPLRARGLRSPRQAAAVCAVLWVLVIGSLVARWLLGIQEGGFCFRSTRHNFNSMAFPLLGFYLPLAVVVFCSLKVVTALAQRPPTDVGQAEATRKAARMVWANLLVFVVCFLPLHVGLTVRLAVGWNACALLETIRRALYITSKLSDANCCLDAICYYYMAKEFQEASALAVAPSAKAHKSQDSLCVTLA

EC50	Compound
≤ 1 µM	CCOc1cc(-c2cccc(CC3OC(=O)NC3=O)c2)ccc1-c1nc2[nH]nnc2c(=O)[nH]1 (stereo not shown) [Compound 125, 5-((3′-Ethoxy-4′-(7-oxo-6,7-dihydro-3H-[1,2,3]triazolo[4,5-d]pyrimidin-5-yl)-[1,1′-biphenyl]-3-yl)methyl)oxazolidine-2,4-dione]
≤ 1 µM	CCOc1cc(-c2cc(O)cc(O)c2)ccc1-c1nc2[nH]nnc2c(=O)[nH]1 [Compound 111, 5-(3-Ethoxy-3′,5′-dihydroxy-[1,1′-biphenyl]-4-yl)-3,6-dihydro-7H-[1,2,3]triazolo[4,5-d]pyrimidin-7-one]
≤ 1 µM	CCOc1cc(-c2ccc(OCCN)c(CCC(=O)O)c2)ccc1-c1nc2[nH]nnc2c(=O)[nH]1 [Compound 116, 3-(4-(2-Aminoethoxy)-3′-ethoxy-4′-(7-oxo-6,7-dihydro-3H-[1,2,3]triazolo[4,5-d]pyrimidin-5-yl)-[1,1′-biphenyl]-3-yl)propanoic acid]
≤ 1 µM	CCOc1cc(-c2cc(O)ccc2O)ccc1-c1nc2[nH]nnc2c(=O)[nH]1 [Compound 109, 5-(3-Ethoxy-2′,5′-dihydroxy-[1,1′-biphenyl]-4-yl)-3,6-dihydro-7H-[1,2,3]triazolo[4,5-d]pyrimidin-7-one]
≤ 1 µM	CCOc1cc(-c2cc(O)cc(CCC(=O)O)c2)ccc1-c1nc2[nH]nnc2c(=O)[nH]1 [Compound 113, 3-(3′-Ethoxy-5-hydroxy-4′-(7-oxo-6,7-dihydro-3H-[1,2,3]triazolo[4,5-d]pyrimidin-5-yl)-[1,1′-biphenyl]-3-yl)propanoic acid]
1 to 10 µM	CCOc1cc(-c2ccc(S(N)(=O)=O)cc2)ccc1-c1nc2[nH]nnc2c(=O)[nH]1 [Compound 107, 3′-Ethoxy-4′-(7-oxo-6,7-dihydro-3H-[1,2,3]triazolo[4,5-d]pyrimidin-5-yl)-[1,1′-biphenyl]-4-sulfonamide]
≤ 1 µM	CCOc1cc(-c2cccc(/C=C3\SC(=O)NC3=O)c2)ccc1-c1nc2[nH]nnc2c(=O)[nH]1 [Compound 120, (Z)-5-((3′-Ethoxy-4′-(7-oxo-6,7-dihydro-3H-[1,2,3]triazolo[4,5-d]pyrimidin-5-yl)-[1,1′-biphenyl]-3-yl)methylene)thiazolidine-2,4-dione]
≤ 1 µM	CCOc1cc(-c2ccc(CO)cc2)ccc1-c1nc2[nH]nnc2c(=O)[nH]1 [Compound 105, 5-(3-Ethoxy-4′-(hydroxymethyl)-[1,1′-biphenyl]-4-yl)-3,6-dihydro-7H-[1,2,3]triazolo[4,5-d]pyrimidin-7-one]
≤ 1 µM	CCOc1cc(-c2cccc(C(O)(O)C(F)(F)F)c2)ccc1-c1nc2[nH]nnc2c(=O)[nH]1 [Compound 127, 5-(3-Ethoxy-3′-(2,2,2-trifluoro-1,1-dihydroxyethyl)-[1,1′-biphenyl]-4-yl)-3,6-dihydro-7H-[1,2,3]triazolo[4,5-d]pyrimidin-7-one]
≤ 1 µM	CCOc1cc(-c2cc(O)cc(/C=C/C(=O)O)c2)ccc1-c1nc2[nH]nnc2c(=O)[nH]1 [Compound 112, (E)-3-(3′-ethoxy-5-hydroxy-4′-(7-oxo-6,7-dihydro-3H-[1,2,3]triazolo[4,5-d]pyrimidin-5-yl)-[1,1′-biphenyl]-3-yl)acrylic acid]
1 to 10 µM	CCOc1cc(-c2cc(CCC(=O)O)cc(OCCN)c2)ccc1-c1nc2[nH]nnc2c(=O)[nH]1 [Compound 115, 3-(5-(2-aminoethoxy)-3′-ethoxy-4′-(7-oxo-6,7-dihydro-3H-[1,2,3]triazolo[4,5-d]pyrimidin-5-yl)-[1,1′-biphenyl]-3-yl)propanoic acid]
1 to 10 µM	CCOc1cc(-c2cccc(CCC(=O)NO)c2)ccc1-c1nc2[nH]nnc2c(=O)[nH]1 [Compound 117, 3-(3′-Ethoxy-4′-(7-oxo-6,7-dihydro-3H-[1,2,3]triazolo[4,5-d]pyrimidin-5-yl)-[1,1′-biphenyl]-3-yl)-N-hydroxypropanamide]
1 to 10 µM	CCOc1cc(-c2cccc(CCC(N)=O)c2)ccc1-c1nc2[nH]nnc2c(=O)[nH]1 [Compound 119, 3-(3′-Ethoxy-4′-(7-oxo-6,7-dihydro-3H-[1,2,3]triazolo[4,5-d]pyrimidin-5-yl)-[1,1′-biphenyl]-3-yl)propanamide]
≤ 1 µM	CCOc1cc(-c2cccc(CCc3noc(=O)[nH]3)c2)ccc1-c1nc2[nH]nnc2c(=O)[nH]1 [Compound 122, 3-(2-(3′-Ethoxy-4′-(7-oxo-6,7-dihydro-3H-[1,2,3]triazolo[4,5-d]pyrimidin-5-yl)-[1,1′-biphenyl]-3-yl)ethyl)-1,2,4-oxadiazol-5(4H)-one]
≤ 1 µM	CCOc1cc(-c2cccc(CO)c2)ccc1-c1nc2[nH]nnc2c(=O)[nH]1 [Compound 104, 5-(3-Ethoxy-3′-(hydroxymethyl)-[1,1′-biphenyl]-4-yl)-3,6-dihydro-7H-[1,2,3]triazolo[4,5-d]pyrimidin-7-one]
≤ 1 µM	CCOc1cc(-c2ccc(C(O)(O)C(F)(F)F)cc2)ccc1-c1nc2[nH]nnc2c(=O)[nH]1 [Compound 128, 5-(3-Ethoxy-4′-(2,2,2-trifluoro-1,1-dihydroxyethyl)-[1,1′-biphenyl]-4-yl)-3,6-dihydro-7H-[1,2,3]triazolo[4,5-d]pyrimidin-7-one]
≤ 1 µM	CCOc1cc(-c2cccc(CCC(=O)NS(=O)(=O)N(C)C)c2)ccc1-c1nc2[nH]nnc2c(=O)[nH]1 [Compound 123, N—(N,N-Dimethylsulfamoyl)-3-(3′-ethoxy-4′-(7-oxo-6,7-dihydro-3H-[1,2,3]triazolo[4,5-d]pyrimidin-5-yl)-[1,1′-biphenyl]-3-yl)propanamide]
≤ 1 µM	CCOc1cc(-c2cc(O)cc(CCC(N)=O)c2)ccc1-c1nc2[nH]nnc2c(=O)[nH]1 [Compound 114, 3-(3′-Ethoxy-5-hydroxy-4′-(7-oxo-6,7-dihydro-3H-[1,2,3]triazolo[4,5-d]pyrimidin-5-yl)-[1,1′-biphenyl]-3-yl)propanamide]
≤ 1 µM	CCOc1cc(-c2cccc(CCc3nnn[nH]3)c2)ccc1-c1nc2[nH]nnc2c(=O)[nH]1 [Compound 124, 5-(3′-(2-(1H-Tetrazol-5-yl)ethyl)-3-ethoxy-[1,1′-biphenyl]-4-yl)-3,6-dihydro-7H-[1,2,3]triazolo[4,5-d]pyrimidin-7-one]
1 to 10 µM	CCOc1cc(-c2cccc(CCO)c2)ccc1-c1nc2[nH]nnc2c(=O)[nH]1 [Compound 103, 5-(3-Ethoxy-3′-(2-hydroxyethyl)-[1,1′-biphenyl]-4-yl)-3,6-dihydro-7H-[1,2,3]triazolo[4,5-d]pyrimidin-7-one]
≤ 1 µM	CCOc1cc(-c2ccc(O)c(O)c2)ccc1-c1nc2[nH]nnc2c(=O)[nH]1 [Compound 108, 5-(3-Ethoxy-3′,4′-dihydroxy-[1,1′-biphenyl]-4-yl)-3,6-dihydro-7H-[1,2,3]triazolo[4,5-d]pyrimidin-7-one]
1 to 10 µM	CCOc1cc(-c2ccc(O)cc2O)ccc1-c1nc2[nH]nnc2c(=O)[nH]1 [Compound 110, 5-(3-Ethoxy-2′,4′-dihydroxy-[1,1′-biphenyl]-4-yl)-3,6-dihydro-7H-[1,2,3]triazolo[4,5-d]pyrimidin-7-one]
≤ 1 µM	CCOc1cc(-c2ccc(C(N)=O)cc2)ccc1-c1nc2[nH]nnc2c(=O)[nH]1 [Compound 101, 3′-Ethoxy-4′-(7-oxo-6,7-dihydro-3H-[1,2,3]triazolo[4,5-d]pyrimidin-5-yl)-[1,1′-biphenyl]-4-carboxamide]
≤ 1 µM	CCOc1cc(-c2cccc(CC3SC(=O)NC3=O)c2)ccc1-c1nc2[nH]nnc2c(=O)[nH]1 (stereo not shown) [Compound 121, 5-((3′-Ethoxy-4′-(7-oxo-6,7-dihydro-3H-[1,2,3]triazolo[4,5-d]pyrimidin-5-yl)-[1,1′-biphenyl]-3-yl)methyl)thiazolidine-2,4-dione]
1 to 10 µM	CCOc1cc(-c2cccc(S(N)(=O)=O)c2)ccc1-c1nc2[nH]nnc2c(=O)[nH]1 [Compound 106, 3′-Ethoxy-4′-(7-oxo-6,7-dihydro-3H-[1,2,3]triazolo[4,5-d]pyrimidin-5-yl)-[1,1′-biphenyl]-3-sulfonamide]
≤ 1 µM	CCOc1cc(-c2cccc(CCCO)c2)ccc1-c1nc2[nH]nnc2c(=O)[nH]1 [Compound 102, 5-(3-Ethoxy-3′-(3-hydroxypropyl)-[1,1′-biphenyl]-4-yl)-3,6-dihydro-7H-[1,2,3]triazolo[4,5-d]pyrimidin-7-one]
≤ 1 µM	CCOc1cc(-c2cccc(Cc3c(C)[nH]oc3=O)c2)ccc1-c1nc2[nH]nnc2c(=O)[nH]1 [Compound 126, 4-((3′-Ethoxy-4′-(7-oxo-6,7-dihydro-3H-[1,2,3]triazolo[4,5-d]pyrimidin-5-yl)-[1,1′-biphenyl]-3-yl)methyl)-3-methylisoxazol-5(2H)-one]
1 to 10 µM	CCOc1cc(-c2cccc(CCC(=O)NOC)c2)ccc1-c1nc2[nH]nnc2c(=O)[nH]1 [Compound 118, 3-(3′-Ethoxy-4′-(7-oxo-6,7-dihydro-3H-[1,2,3]triazolo[4,5-d]pyrimidin-5-yl)-[1,1′-biphenyl]-3-yl)-N-methoxypropanamide]

Reference: patent US20230151017A1, “THERAPEUTIC AGENTS TARGETING GPR35” (PROMETHEUS BIOSCIENCES, INC., priority 2020, published 2023)
